Values quoted from earlier work as cited in patent US20180373846A1, “METHODS AND SYSTEMS FOR ORGANIC SOLUTE SAMPLING OF AQUEOUS AND HETEROGENEOUS ENVIRONMENTS” (University of Maryland, Baltimore, priority 2014, published 2018).

Assays:
[1] = experimental hydration free energy
[2] = Table 2, reference 31
β2AR = β2AR (Homo sapiens, UniProt P07550); details: experimental, from cited references
T4-L99A = T4-L99A (Enterobacteria phage T4, UniProt P00720, L99A)

Compound | HFE^exp [1] | HFE^fep [2] | ΔGbind (β2AR) | experimental binding affinity (T4-L99A)
CO [Methanol, methanol] | -5.1 kcal/mol | -6.16 kcal/mol |  | 
Nc1c(Cl)cc([C@@H](O)CNCCCCCCOCCc2ccccn2)cc1Cl [Picumeterol] |  |  | −12.23 | 
O [Water, water] | -5.6 kcal/mol |  |  | 
CC(C)NCC(O)COc1cccc2[nH]ccc12 (centres unmarked) [Pindolol] |  |  | −12.43 | 
CC=O [Acetaldehyde, acetaldehyde] | -3.5 kcal/mol | -4.43 kcal/mol |  | 
c1ccccc1 [Benzene, benzene] | -0.83 kcal/mol | -0.71 kcal/mol |  | -5.19 ± 0.16 kcal/mol
NC=O [Formamide, formamide] | -14 kcal/mol | -10.71 kcal/mol |  | 
CC(=O)O [Acetate] | -79.1 kcal/mol | -96.5 kcal/mol |  | 
Hydroxybenzyl isoproterenol |  |  | −9.72 | 
CCC [Propane, propane] | 1.96 kcal/mol | 1.60 kcal/mol |  | 
c1c[nH]cn1 [Imidazole, imidazole] |  | -12.55 kcal/mol |  | 
CN [Methylammonium, methylammonium] | -71.3 kcal/mol | -52.0 kcal/mol |  | 
